Patent US20230054976A1, “METHODS FOR INHIBITION OF ALPHA-SYNUCLEIN mRNA USING SMALL MOLECULES” (The Scripps Research Institute, priority 2019, published 2023)

Experiments:
SNCA 5′ UTR = test: Luciferase reporter assay, SNCA 5′ UTR, SH-SY5Y cells; type: cell-based, human
[1] = tested on: wild type A bulge IRE RNA; test: Thermal melting experiment, wild type IRE
Method: Thermal melting experiment. […] The RNA was heated to 65° C. and slowly cooled to room temperature. […] The absorbance of solution was monitored at 260 nm by a Beckman Coulter DU 800 Spectrophotometer. Background of buffer or buffer plus compound was subtracted from the signal. Resulted melting curves were fitted with MeltWin v3.5 to determine ΔG°, ΔH°, ΔS°, and Tm. The melting temperature was compared to the first derivative value from the raw data for similarity.

SNCA mRNA [2] = test: Polysome profiling; type: cell-based, human; details: 1 μM, 48 h
Method: Polysome profiling. Polysome profiling studies were completed similarly to previously described methods (9, 10). SH-SY5Y cells were treated with DMSO vehicle or Synucleozid (1 μM) at 50% confluency. After 48 h, 100 μg/mL (final concentration) cycloheximide (CHX) was added to dishes, and cells were incubated at 37° C. for 10 min. After two times washing with ice-cold 1×DPBS supplemented with 100 μg/mL CHX, cells were scraped with ice-cold 300 μL 1×DPBS supplemented with 100 μg/mL CHX. Three 100 mm dishes of cells were prepared and combined as one profiling sample. After centrifugation, cell pellets were lysed with 250 μL of ice-cold polysome extraction buffer [10 mM NaCl, 10 mM MgCl2, 10 mM Tris, pH 7.5, 1% Triton X-100, 1% sodium deoxycholate, 1 mM DTT supplemented with […] and 0.2 U/μL RNasin (Promega)]. The lysate was transferred to an ice-cold Eppendorf tube, gently vortexed and centrifuged for 15 min at 13,200 rpm, 4° C. The supernatant was layered onto 10 mL linear 10-50% sucrose gradients containing 20 mM HEPES (pH 7.4), 5 mM MgCl2, 100 mM KCl, […], and 100 µg/mL CHX. The sucrose gradients were centrifuged at 40,000 rpm for 2 h at 4° C. then fractionated using a fraction collector (Brandel Inc.). The absorbance of cytosolic RNA was recorded at 254 nm by an inline UV monitor. A 400 μL aliquot from each fraction was collected. Then, RNA extraction, cDNA synthesis and RT-qPCR were performed as described above.

SNCA mRNA [3] = test: RT-qPCR of SNCA mRNA levels in SH-SY5Y cells; type: cell-based, human
APP 5′ UTR = test: Luciferase reporter assay, APP 5′ UTR, SH-SY5Y cells; type: cell-based, human
[4] = tested on: 32P-labeled SNCA IRE hairpin RNA; test: RNase H-mediated ASO-Bind-Map; type: binding, human
Method: RNase H-mediated ASO-Bind-Map. SNCA IRE hairpin RNA was 5′-end labeled with [γ-^32P]ATP and T4 kinase as previously described^5. Approximately, 5 pmoles of ^32P labeled IRE RNA per reaction was folded in 1× RNase H buffer (New England Biolabs) by heating to 65° C. for 5 min and slowly cooling to room temperature. Serially diluted concentrations of Synucleozid were added to the RNA solutions and incubated at room temperature for 30 min. One of ASOs was then added to a final concentration of 500 nM, followed by incubation at room temperature for 30 min. Next, 0.05 U/μL RNase H (New England Biolabs) was added into each RNA-ligand mixture, and the samples were incubated for 20 min. Reactions were quenched by incubating at 65° C. for 20 min. T
Two ladders were generated to identify the positions of RNase H cleavage. Each guanosine (G) residue was identified by using RNase T1 under denaturing conditions as described above. Likewise, a hydrolysis ladder was generated as described above. Reactions were stopped by addition of an equal volume of 2× Loading Buffer. Fragments were separated on a denaturing 15% polyacrylamide gel and imaged using a BioRad PMI phosphorimager. Images were quantified with BioRad's QuantityOne software.

[5] = tested on: α-synuclein pre-formed fibrils (PFFs) toxicity in SH-SY5Y cells; test: Cell death assay: cytoprotection against α-synuclein pre-formed fibrils (LDH); type: cell-based, human; details: 0.25-1 μM pretreatment 24 h, 50 μg/mL PFFs 48 h
Method: Cell death assay. The cytoprotective effect of Synucleozid was tested against α-synuclein PFFs. Human α-synuclein was expressed^78 and fibrillization induced as previously described^79. SH-SY5Y cells were pretreated with Synucleozid (0.25 μM to 1 μM) for 24 h and challenged with 50 μg/mL of α-synuclein PFFs for an additional 48 h in the presence of Synucleozid. Cell death was measured using LDH (Lactate Dehydrogenase) Cytotoxicity Detection Kit (Takara) according to the manufacturer's instructions and plotted either as optical density value or as percentage changes in comparison to respective controls. Monomeric α-synuclein (50 μg/mL) challenge was used as negative control for PFF cytotoxicity. Additional details are provided in the Supporting Information.
Cell death assay. The cytoprotective effect of Synucleozid was tested against α-synuclein preformed fibrils. […] To induce fibrillization of monomertic α-synuclein, the solution was subjected to shaking at 1000 rpm at 37° C. for 7 days on a thermomixer C (Eppendorf), and formation of fibrillar α-synuclein was monitored and confirmed by thioflavin-T assay (8). […] Cell death was measured using LDH (Lactate Dehydrogenase) Cytotoxicity Detection Kit (Takara) according to the manufacturer's instructions and plotted either as optical density value or as percentage changes in comparison to respective controls. […]

N=C(N)c1ccc(Nc2ccc(-c3cc4ccc(C(=N)N)cc4[nH]3)cc2)cc1 [Synucleozid A]
inhibition of translation, luciferase fused to SNCA 5′ UTR (SNCA 5′ UTR; 250 nM): ~10% | inhibition of translation, luciferase fused to SNCA 5′ UTR (SNCA 5′ UTR; 1 μM): ~40% | increase of Tm of wild type IRE [1]: 3 °C | Tm of wild type IRE in presence of Synucleozid ([1]; from 51.4 without compound): 54.8 °C | ΔG37° of wild type IRE in presence of Synucleozid ([1]; from −2.91 without compound): -3.23 kcal/mol | association of ribosomes with a control RNA (SNCA mRNA [2]): does not affect | decrease of SNCA mRNA associated with active polysomes (SNCA mRNA [2]; SH-SY5Y cells): ~20% | SNCA mRNA associated with incomplete ribosomes (SNCA mRNA [2]; fractions 1-5): increase | effect on steady-state levels of SNCA mRNA (SNCA mRNA [3]): no effect | effect on translation of luciferase fused to APP 5′ UTR (APP 5′ UTR): no effect | protection from RNase H cleavage, ASOs hybridized with sites other than A bulge ([4]; 1 μM): no protection from cleavage | protection of the IRE from RNase H cleavage ([4]; 0.1, 1, and 10 μM, ASO (1-10) and ASO (40-50) overlap with the A bulge): only observed with ASOs whose binding sites overlap with the A bulge | cytoprotection against toxicity of α-synuclein PFFs (LDH release) [5]: mitigated the toxicity induced by PFFs in a concentration dependent manner | cytoprotection against toxicity of α-synuclein PFFs (LDH release) ([5]; listed as Synucleozid): abrogates cytotoxicity
